Test results reported in patent US11632973B2, “Composition comprising taste modulation compounds, their use and foodstuff comprising them” (V. MANE FILS, priority 2015, dated 2023).
“Also recorded” adds a separate entry of the source.

Experiments:
Assay type in all cases: in vivo
panelists = assay: Various lactams added to cheese sauce, saltiness evaluation (Deviation from Reference); settings: for perception of creaminess / perception of saltiness: cheese sauce comprising the compound, compared to the control; for Test Effects Taster 1 / Test Effects Taster 2 / Test Effects Taster 3 / Test Effects Taster 4: cheese sauce plus 5 ppm compound, compared with cheese sauce alone
Experimental: Epsilon-caprolactam, 2-piperidone, and N-methylcaprolactam were added to cheese sauce.
All cheese sauce samples were served at 21° C. Samples were stirred by hand prior to portioning to ensure even distribution of components. Approximately 9 ml of cheese sauce was served into odorless, translucent, one-ounce cups labeled with three-digit codes and capped with a lid. The samples were portioned out approximately 45 minutes prior to evaluation.
Panelists evaluated all samples in fully enclosed partitioned booths under white lights. Fizz NETWORK Software Acquisitions Biosystemes 2.47B was used for data collection. Each panelist was provided with filtered water for rinsing and instructed to follow a strict rinsing procedure. The rinsing protocol required panelists to rinse prior to tasting the first sample, and after tasting each sample.
Samples were evaluated using a Deviation from Reference (DFR) method. Panelists were given an identified reference labeled “000” and a coded sample simultaneously. The coded sample was either a blind, coded reference or a coded test sample. The panelists were instructed to taste the reference (000) first and mentally evaluate its SALTINESS intensity. Panelists were then instructed to taste and rate the coded sample's intensity for SALTINESS compared to the identified reference. Sample sets were given to the panelists in balanced, randomized order. A one-minute wait period was enforced between sample sets to reduce flavour carryover.
Panelists rated SALTINESS intensity difference from the reference using a 9-pt scale anchored with the following descriptors: (−4) Extremely less than Reference, (0) Same as Reference, (4) Extremely more than Reference. Number values were NOT shown on the scale. Statistical mean differences were calculated using one-way ANOVA using Fizz Calculations Biosystemes 2.47B. A significance level of p≤0.05 was set for statistical tests. Compared to the control the perceptions of saltiness and creaminess in the cheese sauce comprising epsilon-caprolactam, 2-piperidone, and N-methylcaprolactam is increased.

expert tasters [1] = assay: Effect on sweetness perception of Rebaudioside-A in water
expert tasters [2] = assay: as above; settings: for Taster Observations Taster 1 / Taster Observations Taster 2 / Taster Observations Taster 3 / Taster Observations Taster 4: Reb-A 250 ppm in water, TMC level 5 ppm; for bitter interference: Rebaudioside-A at 250 ppm, 5 ppm compound; for perception of sweetness: products with high intensity sweetener, four expert tasters, vs control
Experimental: The taste perception of the products containing the high intensity sweeteners without epsilon-caprolactam or 2-piperidone (Control) is compared with the same product (Test) containing epsilon-caprolactam or 2-piperidone. […] When a tasting solution is dosed with Rebaudioside-A at 250 ppm, with either epsilon-caprolactam or 2-piperidone at each 5 ppm, “bitter interference” and brightens pure sweetness are reduced.

[3] = Reb-A 25 ppm in water, TMC level 5 ppm

SMILES | perception of creaminess (panelists) | perception of saltiness (panelists) | Test Effects Taster 1 (panelists) | Test Effects Taster 2 (panelists) | Test Effects Taster 3 (panelists) | Test Effects Taster 4 (panelists) | Taster Observations Taster 1 (expert tasters [1]; [3]) | Taster Observations Taster 2 (expert tasters [1]; [3]) | Taster Observations Taster 3 (expert tasters [1]; [3]) | Taster Observations Taster 4 (expert tasters [1]; [3]) | sweetness (expert tasters [1]; Rebaudioside-A at 25 ppm, 5 ppm compound) | Taster Observations Taster 1 (expert tasters [2]) | Taster Observations Taster 2 (expert tasters [2]) | Taster Observations Taster 3 (expert tasters [2]) | Taster Observations Taster 4 (expert tasters [2]) | bitter interference (expert tasters [2]) | perception of sweetness (expert tasters [2])
O=C1CCCCN1 [2-piperidone] | increased | increased | Delayed saltier; also recorded: More dairy impact | Increased saltiness; also recorded: Increased creaminess | Saltier; also recorded: Creamier | Clean sweet; also recorded: Stronger sweet | sweeter,; also recorded: clean | clean sweet,; also recorded: no bitter | no bitter | best - sweetest,; also recorded: clean | purified and amplified | clean sweet,; also recorded: control | clean sweet,; also recorded: no lingering | clean sweet,; also recorded: no bitter,; also recorded: not linger | clean sweet,; also recorded: stronger sweet | reduced | purified and amplified
CN1CCCCCC1=O [N-methylcaprolactam] | increased | increased | Slight increase in saltiness | Unclean; also recorded: Slightly bitter | Bitter; also recorded: Increased saltiness | Least effective of three |  |  |  |  |  |  |  |  |  |  | 
O=C1CCCCCN1 [epsilon-caprolactam] | increased | increased | Slightly bitter; also recorded: Increased saltiness | Sweeter with less linger | Cleaner; also recorded: Less lingering; also recorded: Sweeter upfront | Cleaner; also recorded: Less lingering; also recorded: Sweeter upfront | sweet,; also recorded: slightly bitter | dirty,; also recorded: unclean |  | slightly higher; also recorded: sweet |  | sweeter, less; also recorded: lingering,; also recorded: slightly bitter | less linger | sweeter; also recorded: cleaner,; also recorded: less lingering | sweeter upfront,; also recorded: cleaner,; also recorded: less lingering | reduced | purified and amplified
